This passage reports IC50 results from ChEMBL document CHEMBL4813930, “Cytotoxic Manoalide-Type Sesterterpenes from the Sponge Luffariella variabilis Collected in the South China Sea” (J Nat Prod, 2021).

The subject of one experiment is L02. The experiment in a line: Cytotoxicity against human L02 cells by SRB assay. The experiment is classed as cell-based. On the technique in general: The SRB assay estimates cell density from bound dye.
The next experiment concerns ASPC1. Nature of the experiment: Cytotoxicity against human ASPC1 cells by SRB assay. The format is functional, cell-based.
For a further experiment, the system named is K562. The experiment in a line: Cytotoxicity against human K562 cells by MTT assay. The format is functional, cell-based. For orientation: Tetrazolium assays rely on reduction of a dye to a coloured formazan, in cell work by metabolically active cells.
For another experiment, the system named is MDA-MB-231. The experiment in a line: Cytotoxicity against human MDA-MB-231 cells by SRB assay. The experiment is classed as functional, cell-based.
A short description of experiment [1]: Cytotoxicity against human NCI-H69AR cells by SRB assay. The format is functional, cell-based.

Usually IC50 stands for the concentration that gives 50% inhibition. Low readings indicate greater potency in that assay, high ones weaker potency in that assay. In the case of `COC(=O)Cc1cc(CC/C=C(\C)CC/C=C(\C)CCC=C(C)C)ccc1O`, the IC50 in the experiment on L02 was greater than 30 µM; in the experiment with ASPC1, greater than 30 µM; in the experiment on K562, 15 µM; with MDA-MB-231, greater than 30 µM; in experiment [1], greater than 30 µM.
Regarding `COc1cccc2c1C(=O)c1c(O)c3c(c(O)c1C2=O)C[C@@](O)(C(=O)CO)C[C@@H]3O[C@H]1C[C@H](N)[C@H](O)[C@H](C)O1` [DOXORUBICIN], the IC50 (with L02; in the experiment with ASPC1; in the experiment on K562; in the experiment with MDA-MB-231; in experiment [1]) was less than 1 µM throughout.
